Results reported in patent publication US20180168208A1 (priority 2014, published 2018).
Where two headings read alike, the source gives them in different places.

Biological target: T1R1/T1R3 receptor (Felis catus, UniProt E3UMS2)
Assay: cell-based
Assay type: cell-based
Text: HEK293 cells that stably express T1R3 and inducibly express T1R1 were exposed to transmembrane compounds alone or in combination with one or more amino acids and/or one or more nucleotides to activate the umami receptor. Activation of the T1R1/T1R3 receptor was detected by a change in intracellular calcium levels using a calcium sensitive fluorescent dye. Cells that express T1R3 but not T1R1 were used as a control. A FLIPR® Tetra or a FlexStation® 3 was used for data capture.
In each experiment, serial dilutions of up to 10 mM of the transmembrane compound were added to the T1R1/T1R3-expressing cells.

[1] = + Alanine, Table 17, read-out: EC50 + Alanine
[2] = +Alanine (20 mM), Table 18, read-out: EC50 +Alanine
[3] = EC50 + IMP, + IMP (0.2 mM), Table 17
[4] = EC50 +Alanine + IMP, +Alanine (20 mM) + IMP (0.2 mM), Table 18
[5] = EC50 +IMP, +IMP (0.2 mM), Table 18
[6] = compound alone in buffer, Table 17, read-out: EC50 + buffer (alone)
[7] = compound alone in buffer, Table 18, read-out: EC50 +buffer (alone)
[8] = EC50 - with IMP (0.2 mM), with 0.2 mM IMP

SMILES | Thres +Alanine (+ Alanine (20 nM), Table 17) [mM] | Max resp % of IMP + Alanine (+ Alanine, Table 17) | Max resp ΔF/F +Alanine (+ Alanine, Table 17) | EC50 [1] [µM] | Max resp % of ALa + IMP (+ IMP (0.2 mM), Table 17) | Thres + IMP (+ IMP (0.2 mM), Table 17) [mM] | Max resp ΔF/F +Alanine (+Alanine (20 mM), Table 18) | Thres +Alanine (+Alanine (20 mM), Table 18) [mM] | EC50 [2] [µM] | Max resp % of Ala +IMP (+IMP (0.2 mM), Table 18) | Max resp ΔF/F +IMP (+IMP (0.2 mM), Table 18) | EC50 [3] [µM] | EC50 [4] [µM] | EC50 [5] [µM] | EC50 [6] [µM] | EC50 [7] [µM] | further results
CCC(CC)NC(=O)c1ccc2c(c1)OCCO2 [N-(pentan-3-yl)-2,3-dihydrobenzo[b][1,4]dioxine-6-carboxamide] | 0.3 | 25.2 % of IMP | 0.3125 | > 1000 | 70.9 % of ALa | 0.075 | 0.3125 | 0.3 | > 1000 | 70.9 % of Ala | 0.8725 | 300 | 200 | 300 | > 1000 | > 1000 | –
COc1ccc(C(=O)NC(C)c2ccccc2)cc1C (stereo not shown) [4-methoxy-3-methyl-N-(1-phenylethyl)benzamide] | 3 | 41.0 % of IMP | 0.51 | > 3000 | 95.6 % of ALa | 0.35 | 0.51 | 3 | > 3000 | 95.6 % of Ala | 1.1775 | 1400 | 1200 | 1400 | > 3000 | > 3000 | –
CCC(CC)NC(=O)c1ccc(Br)o1 [5-bromo-N-(pentan-3-yl)furan-2-carboxamide] | 1 | 126.8 % of IMP | 1.575 | > 3000 | 149.6 % of ALa | 0.3 | 1.575 | 1 | > 3000 | 149.6 % of Ala | 1.8425 | > 1000 | > 1000 | > 1000 | > 3000 | > 3000 | –
COc1cc(C(=O)NC(C(N)=O)c2ccccc2)cc(Cl)c1OC (stereo not shown) [N-(2-amino-2-oxo-1-phenylethyl)-3-chloro-4,5-dimethoxybenzamide] | – | – | – | – | 49.4 % of ALa | 0.17 | – | – | – | 49.4 % of Ala | 0.415 | 680 | 750 | 680 | – | – | activation of T1R1/T1R3 by the compound alone (in words): failed to activate T1R1/T1R3 alone
CSc1ccc(-c2nnn(Cc3ccccn3)n2)cc1 [2-((5-(4-(methylthio)phenyl)-2H-tetrazol-2-yl)methyl)pyridine] | – | – | – | – | 80.7 % of ALa | 0.1575 | – | – | – | 80.7 % of Ala | 0.678 | 630 | 270 | 630 | – | – | –
N[C@@H](Cc1ccccc1)C(=O)O [Phenylalanine, phenylalanine] | – | – | – | – | – | – | – | – | – | – | – | – | – | – | – | – | EC50 [8]: 3400 ± 700 µM
CCCC(CCC)C(=O)Nc1ccc2c(c1)OCO2 [N-(benzo[d][1,3]dioxol-5-yl)-2-propylpentanamide] | – | – | – | – | 108.0 % of ALa | 0.0675 | – | – | – | 108.0 % of Ala | 0.908 | 270 | 90 | 270 | 350 | 350 | activation of T1R1/T1R3 by the compound alone (in words): agonist of T1R1/T1R3 alone
COC(=O)C(NC(=O)/C=C/c1cccs1)C(C)C (stereo not shown) [(E)-methyl 3-methyl-2-(3-(thiophen-2-yl)acrylamido)butanoate] | 10 | 9.5 % of IMP | 0.1175 | – | 59.9 % of ALa | 1 | 0.1175 | 10 | – | 59.9 % of Ala | 0.7375 | > 10000 | > 10000 | > 10000 | – | – | –
COc1ccc(/C=C/C(=O)NC2CCCCC2C)cc1 (stereo not shown) [(E)-3-(4-methoxyphenyl)-N-(2-methylcyclohexyl) acrylamide] | 3 | 63.2 % of IMP | 0.785 | > 10000 | 144.0 % of ALa | 0.3 | 0.785 | 3 | > 10000 | 144.0 % of Ala | 1.7725 | > 3000 | > 3000 | > 3000 | > 10000 | > 10000 | –
O=C(NCCc1ccccc1)C(=O)NCc1cccnc1 [N1-phenethyl-N2-(pyridin-3-ylmethyl)oxalamide] | 1 | 30.2 % of IMP | 0.3750 | > 1000 | 61.9 % of ALa | 0.1 | 0.3750 | 1 | > 1000 | 61.9 % of Ala | 0.7625 | > 300 | 200 | > 300 | > 1000 | > 1000 | –
CC1CCCC(NC(=O)c2ccc3c(c2)OCO3)C1C (stereo not shown) [N-(2,3-dimethylcyclohexyl) benzo[d][1,3]dioxole-5-carboxamide] | 3 | 18.1 % of IMP | 0.225 | – | 95.4 % of ALa | 0.275 | 0.225 | 3 | > 3000 | 95.4 % of Ala | 1.175 | 1100 | 600 | 1100 | 2000 | 2000 | EC50 (read-out: EC50 + Alanine): > 3000 µM
CCC(CC)NC(=O)/C=C/c1ccc(OC)cc1 [(E)-3-(4-methoxyphenyl)-N-(pentan-3-yl)acrylamide] | 0.148 | 64.1 % of IMP | 0.7 | – | 171.7 % of ALa | 0.0375 | 0.7 | 0.148 | 590 | 171.7 % of Ala | 1.443 | 150 | 80 | 150 | 450 | 450 | EC50: 80 ± 10 µM; EC50 (EC50 + Alanine + IMP, + Alanine (20 mM) + IMP (0.2 mM), Table 17): 80 µM; EC50 [8]: 150 ± 20 µM; EC50 (alone in buffer, read-out: EC50 - alone): 450 ± 10 µM; EC50 (read-out: EC50 + Alanine): 590 µM
